Source: US8916565B2, “Pyrrolopyrazine-spirocyclic piperidine amides as modulators of ion channels” (priority 2011, dated 2014)

Target: human NaV subtype, like NaV 1.7 (Homo sapiens, UniProt Q15858)
Test: E-VIPR optical membrane potential assay with electrical stimulation
Format: cell-based
Conditions: active against one or more sodium channels; Table 3 does not name the assay or NaV subtype; read-out: Binned Activity Data (IC50)
Text: Assays for Detecting and Measuring NaV Inhibition Properties of Compound E-VIPR Optical Membrane Potential Assay Method with Electrical Stimulation
Sodium channels are voltage-dependent proteins that can be activated by inducing membrane voltage changes by applying electric fields. The electrical stimulation instrument and methods of use are described in Ion Channel Assay Methods PCT/US01/21652, herein incorporated by reference and are referred to as E-VIPR. The instrument comprises a microtiter plate handler, an optical system for exciting the coumarin dye while simultaneously recording the coumarin and oxonol emissions, a waveform generator, a current- or voltage-controlled amplifier, and a device for inserting electrodes in well. Under integrated computer control, this instrument passes user-programmed electrical stimulus protocols to cells within the wells of the microtiter plate.
24 hours before the assay on E-VIPR, HEK cells expressing human NaV subtype, like NaV 1.7, are seeded in 384-well poly-lysine coated plates at 15,000-20,000 cells per well. Other subtypes are performed in an analogous mode in a cell line expressing the NaV of interest. HEK cells are grown in media (exact composition is specific to each cell type and NaV subtype) supplemented with 10% FBS (Fetal Bovine Serum, qualified; GibcoBRL #16140-071) and 1% Pen-Strep (Penicillin-Streptomycin; GibcoBRL #15140-122). Cells are grown in vented cap flasks, in 90% humidity and 10% CO2, to 100% confluence. They are usually split by trypsinization 1:10 or 1:20, depending on scheduling needs, and grown for 2-3 days before the next split.
Bath 1 buffer. Glucose 10 mM (1.8 g/L), Magnesium Chloride (Anhydrous), 1 mM (0.095 g/L), Calcium Chloride, 2 mM (0.222 g/L), HEPES 10 mM (2.38 g/L), Potassium Chloride, 4.5 mM (0.335 g/L), Sodium Chloride 160 mM (9.35 g/L).
Hexyl Dye Solution: Bath 1 Buffer+0.5% β-cyclodextrin (make this prior to use, Sigma #C4767), 8 μM CC2-DMPE+2.5 μM DiSBAC6(3). To make the solution Add volume of 10% Pluronic F127 stock equal to volumes of CC2-DMPE+DiSBAC6(3). The order of preparation is first mix Pluronic and CC2-DMPE, then add DiSBAC6(3) while vortexing, then add Bath 1+β-Cyclodextrin.
1) Pre-spot compounds (in neat DMSO) into compound plates. Vehicle control (neat DMSO), the positive control (20 mM DMSO stock tetracaine, 125 μM final in assay) and test compounds are added to each well at 160× desired final concentration in neat DMSO. Final compound plate volume will be 80 μL (80-fold intermediate dilution from 1 μL DMSO spot; 160-fold final dilution after transfer to cell plate). Final DMSO concentration for all wells in assay is 0.625%.
2) Prepare Hexyl Dye Solution.
3) Prepare cell plates. On the day of the assay, medium is aspirated and cells are washed three times with 100 μL of Bath 1 Solution, maintaining 25 μL residual volume in each well.
4) Dispense 25 μL per well of Hexyl Dye Solution into cell plates. Incubate for 20-35 minutes at room temp or ambient conditions.
5) Dispense 80 μL per well of Bath 1 into compound plates. Acid Yellow-17 (1 mM) is added and Potassium Chloride can be altered from 4.5 to 20 mM depending on the NaV subtype and assay sensitivity.
6) Wash cell plates three times with 100 μL per well of Bath1, leaving 25 μL of residual volume. Then transfer 25 uL per well from Compound Plates to Cell Plates. Incubate for 20-35 minutes at room temp/ambient condition
7) Read Plate on E-VIPR. Use the current-controlled amplifier to deliver stimulation wave pulses for typically 9 seconds and a scan rate of 400 Hz. A pre-stimulus recording is performed for 0.5 seconds to obtain the un-stimulated intensities baseline. The stimulatory waveform is applied for 9 seconds followed by 0.5 seconds of post-stimulation recording to examine the relaxation to the resting state.

human NaV subtype, like NaV 1.7, sequence (Q15858 whole entry): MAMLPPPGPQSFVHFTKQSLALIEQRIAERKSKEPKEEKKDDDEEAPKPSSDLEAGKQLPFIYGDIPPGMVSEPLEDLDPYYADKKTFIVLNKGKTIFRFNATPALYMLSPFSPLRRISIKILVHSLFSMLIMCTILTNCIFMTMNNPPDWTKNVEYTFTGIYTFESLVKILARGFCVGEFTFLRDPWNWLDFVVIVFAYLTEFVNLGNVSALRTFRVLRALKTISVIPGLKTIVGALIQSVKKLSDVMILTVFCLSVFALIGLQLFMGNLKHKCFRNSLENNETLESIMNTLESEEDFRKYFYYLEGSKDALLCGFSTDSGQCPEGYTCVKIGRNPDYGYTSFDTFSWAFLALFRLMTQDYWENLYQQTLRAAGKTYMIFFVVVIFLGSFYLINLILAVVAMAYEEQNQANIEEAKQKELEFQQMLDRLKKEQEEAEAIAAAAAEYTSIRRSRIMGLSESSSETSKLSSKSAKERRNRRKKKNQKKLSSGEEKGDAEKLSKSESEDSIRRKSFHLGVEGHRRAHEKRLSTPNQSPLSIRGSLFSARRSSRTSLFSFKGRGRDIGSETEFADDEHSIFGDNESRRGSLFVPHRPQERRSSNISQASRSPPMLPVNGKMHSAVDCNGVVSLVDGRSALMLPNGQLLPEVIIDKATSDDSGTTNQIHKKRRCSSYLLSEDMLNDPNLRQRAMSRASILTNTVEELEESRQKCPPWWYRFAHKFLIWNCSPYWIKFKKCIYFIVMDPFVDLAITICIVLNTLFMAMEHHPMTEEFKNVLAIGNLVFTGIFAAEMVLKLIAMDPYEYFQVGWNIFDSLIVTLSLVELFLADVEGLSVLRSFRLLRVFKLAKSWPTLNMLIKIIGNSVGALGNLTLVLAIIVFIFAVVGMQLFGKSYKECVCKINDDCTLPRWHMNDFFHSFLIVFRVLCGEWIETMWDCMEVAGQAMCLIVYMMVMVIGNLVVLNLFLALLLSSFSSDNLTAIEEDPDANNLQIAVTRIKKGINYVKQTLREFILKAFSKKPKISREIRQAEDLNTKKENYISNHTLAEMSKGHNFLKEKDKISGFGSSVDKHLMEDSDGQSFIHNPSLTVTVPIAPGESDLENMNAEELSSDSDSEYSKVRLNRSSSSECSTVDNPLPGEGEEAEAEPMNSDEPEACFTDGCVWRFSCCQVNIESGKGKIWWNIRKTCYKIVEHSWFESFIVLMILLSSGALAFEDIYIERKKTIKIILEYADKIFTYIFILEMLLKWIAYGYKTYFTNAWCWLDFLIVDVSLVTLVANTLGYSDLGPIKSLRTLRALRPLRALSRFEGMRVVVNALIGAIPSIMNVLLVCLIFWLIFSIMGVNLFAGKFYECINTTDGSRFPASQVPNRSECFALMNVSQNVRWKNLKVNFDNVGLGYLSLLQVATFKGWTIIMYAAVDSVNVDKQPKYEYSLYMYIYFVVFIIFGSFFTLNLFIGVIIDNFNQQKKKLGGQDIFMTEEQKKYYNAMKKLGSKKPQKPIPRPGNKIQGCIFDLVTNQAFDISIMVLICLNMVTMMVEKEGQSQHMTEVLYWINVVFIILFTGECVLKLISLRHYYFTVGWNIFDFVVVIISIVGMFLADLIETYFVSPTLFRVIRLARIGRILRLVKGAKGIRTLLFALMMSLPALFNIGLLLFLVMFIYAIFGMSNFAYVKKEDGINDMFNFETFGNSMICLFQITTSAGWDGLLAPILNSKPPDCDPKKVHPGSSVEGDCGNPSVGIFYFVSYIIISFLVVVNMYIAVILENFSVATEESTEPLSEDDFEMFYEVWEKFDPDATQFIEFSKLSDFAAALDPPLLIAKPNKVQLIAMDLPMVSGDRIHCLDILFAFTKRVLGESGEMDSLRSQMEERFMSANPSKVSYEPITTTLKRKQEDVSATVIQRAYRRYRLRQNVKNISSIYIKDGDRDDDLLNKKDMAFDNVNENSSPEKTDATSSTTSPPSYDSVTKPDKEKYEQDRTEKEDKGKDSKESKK

SMILES | IC50
Cc1cc(C(=O)N2CCC3(CC2)c2ccc(C(=O)C(F)(F)F)n2CCN3C)ccc1Cl [Compound 1] | 2000 to 5000 nM
Cc1cc(C(=O)N2CCC3(CC2)c2ccc(C(F)(F)F)n2CCN3C)ccc1S(=O)(=O)C(C)C [Compound 2] | ≤ 2000 nM
COc1cc(C(=O)N2CC[C@]3(c4ccc(C(F)(F)F)n4CCN3C)[C@H](F)C2)ccc1OC(C)C [Compound 3] | > 5000 nM
COc1cc(C(=O)N2CCC3(CC2)NCC(=O)n2c(C(F)(F)F)ccc23)ccc1OC(C)C [Compound 4] | > 5000 nM
CC(=O)c1ccc2n1CCN(C)C21CCN(C(=O)c2ccc(CC(C)C)cc2)CC1 [Compound 5] | ≤ 2000 nM
CN1CCn2c(C(=O)C(F)(F)F)ccc2C12CCN(C(=O)c1ccc(OC(C)(C)C)cc1)CC2 [Compound 6] | ≤ 2000 nM
CNS(=O)(=O)c1ccc(C(=O)N2CCC3(CC2)c2ccc(C(F)(F)F)n2CCN3C)cc1C [Compound 7] | ≤ 2000 nM
CC1CN(C)C2(CCN(C(=O)c3ccc(COCCC(F)(F)F)cc3)CC2)c2ccc(C(=O)C(F)(F)F)n21 (centres unmarked) [Compound 8] | ≤ 2000 nM
COc1cc(C(=O)N2CCC3(CC2)c2c(Cl)cc(C(F)(F)F)n2CCN3C)ccc1OC(C)C [Compound 9] | ≤ 2000 nM
Cc1cc(C(=O)N2CCC3(CC2)c2ccc(Cl)n2CCN3C)ccc1C(C)(C)O [Compound 10] | ≤ 2000 nM
CC(C)Oc1ccc(C(=O)N2CCC3(CC2)c2ccc(CC(F)(F)F)n2CCN3C)cc1Cl [Compound 11] | ≤ 2000 nM
CN1CCn2c(C(=O)C(F)(F)F)ccc2C12CCN(C(=O)c1ccc(C(C)(C)C)cc1)CC2 [Compound 12] | ≤ 2000 nM
CNS(=O)(=O)c1ccc(C(=O)N2CCC3(CC2)c2ccc(C(F)(F)C(F)(F)F)n2CCN3C)cc1C [Compound 13] | ≤ 2000 nM
COc1ccc(C(=O)N2CCC3(CC2)c2ccc(C(=O)C(F)(F)F)n2C[C@H](C)N3C)cc1C [Compound 14] | ≤ 2000 nM
COc1ccc(C(=O)N2CCC3(CC2)c2ccc(C(=O)C(F)(F)F)n2C(C)CN3C)nc1C (centres unmarked) [Compound 15] | ≤ 2000 nM
CC(C)Oc1ccc(C(=O)N2CCC3(CC2)c2ccc(C(=O)C(F)(F)F)n2C(C)(C)CN3C)cc1F [Compound 16] | 2000 to 5000 nM
COc1cc(C(=O)N2CCC3(CC2)c2ccc(C(=O)C(F)(F)F)n2CCN3C)ccc1COCC(F)(F)F [Compound 17] | ≤ 2000 nM
CCCOc1ccc(C(=O)N2CCC3(CC2)c2c(F)cc(C(F)(F)F)n2CCN3C)cc1 [Compound 18] | ≤ 2000 nM
CN1CCn2c(C(=O)C3(C)CC3)ccc2C12CCN(C(=O)c1ccc(O)c(Cl)c1)CC2 [Compound 19] | ≤ 2000 nM

SMILES | IC50
CCCCCc1ccc(C(=O)N2CCC3(CC2)c2ccc(Cl)n2CCN3C)cc1 [Compound 20] | ≤ 2000 nM
CN1CCn2c(C(F)(F)F)ccc2C12CCN(C(=O)c1cnn3c(C(F)F)cc(C4CC4)nc13)CC2 [Compound 21] | > 5000 nM
CC(C)Oc1ccc(C(=O)N2CCC3(CC2)c2ccc(C(F)(F)F)n2CCN3C)nc1 [Compound 22] | > 5000 nM
CN1CCn2c(C(F)(F)F)cc(F)c2C12CCN(C(=O)c1ccc(S(=O)(=O)C(F)F)cc1)CC2 [Compound 23] | ≤ 2000 nM
CCNS(=O)(=O)c1ccc(C(=O)N2CCC3(CC2)c2ccc(Cl)n2CCN3C)cc1 [Compound 24] | 2000 to 5000 nM
CC(C)Oc1ccc(C(=O)N2CCC3(CC2)c2ccc(Cl)n2CCN3C)cc1F [Compound 25] | > 5000 nM
CCc1ccc(C(=O)N2CCC3(CC2)c2ccc(C(=O)C(F)(F)F)n2CCN3C)cc1 [Compound 26] | 2000 to 5000 nM
CN1CCn2c(C(F)(F)F)ccc2C12CCN(C(=O)c1ccccc1Oc1ccccc1)CC2 [Compound 27] | ≤ 2000 nM
Cc1cc(C(=O)N2CCC3(CC2)c2ccc(C(F)(F)F)n2CCN3C)ccc1S(=O)(=O)NC1CC1 [Compound 28] | ≤ 2000 nM
COc1cc(C(=O)N2CCC3(CC2)c2ccc(C(F)(F)F)n2C[C@H](C)N3C)ccc1OC(C)C [Compound 29] | ≤ 2000 nM
CC(=O)c1cc2n(c1)CC(C)(C)NC21CCN(C(=O)c2ccc(OC(C)C)c(Cl)c2)CC1 [Compound 30] | > 5000 nM
CN1CCn2c(C(=O)C3CC3)ccc2C12CCN(C(=O)c1ccc(O)c(Cl)c1)CC2 [Compound 31] | 2000 to 5000 nM
CN1CCn2c(Cl)ccc2C12CCN(C(=O)c1ccc(OCC(C)(C)C)cc1)CC2 [Compound 32] | ≤ 2000 nM
CN1CCn2c(C(=O)C(F)(F)F)ccc2C12CCN(C(=O)c1ccc(S(=O)(=O)NC3CC3)cc1)CC2 [Compound 33] | ≤ 2000 nM
CCCCOc1ccc(C(=O)N2CCC3(CC2)c2ccc(C(C)=O)n2CCN3C)cc1 [Compound 34] | ≤ 2000 nM
COCC#Cc1ccc(C(=O)N2CCC3(CC2)c2ccc(Cl)n2CCN3C)cc1F [Compound 36] | > 5000 nM
CC(C)Oc1ccc(C(=O)N2CCC3(CC2)NC(C)(C)Cn2c(C(F)(F)F)ccc23)cc1Cl [Compound 37] | ≤ 2000 nM
CC[C@H](C)Oc1ccc(C(=O)N2CCC3(CC2)c2ccc(Cl)n2CCN3C)cc1OC [Compound 38] | 2000 to 5000 nM
Cc1cc(C(=O)N2CCC3(CC2)c2cccn2CCN3Cc2ccccc2)ccc1OC(C)C [Compound 39] | ≤ 2000 nM

SMILES | IC50
CC(C)Oc1ccc(C(=O)N2CCC3(CC2)c2ccc(C(=O)C(F)(F)F)n2CCN3C)cc1F [Compound 40] | ≤ 2000 nM
CC1(C)Cn2c(C(=O)C(F)(F)F)ccc2C2(CCN(C(=O)c3ccc(COCC(F)(F)F)cc3)CC2)N1 [Compound 41] | ≤ 2000 nM
COc1cccc(C(=O)N2CCC3(CC2)c2ccc(C(F)(F)F)n2CCN3C)c1 [Compound 42] | > 5000 nM
O=C(c1ccccc1Oc1ccccc1)N1CCC2(CC1)NCCn1c(C(F)(F)F)ccc12 [Compound 43] | > 5000 nM
CC(C)CNc1ncccc1C(=O)N1CCC2(CC1)c1ccc(C(F)(F)F)n1CCN2C [Compound 44] | 2000 to 5000 nM
CN1CCn2c(C(=O)C(F)(F)F)ccc2C12CCN(C(=O)c1ccc(OCC3CC3)c(F)c1)CC2 [Compound 46] | ≤ 2000 nM
CN1CCn2c(C(=O)C(F)(F)F)ccc2C12CCN(C(=O)c1ccc(OCC3CC3)cc1)CC2 [Compound 47] | ≤ 2000 nM
COc1cc(C(=O)N2CCC3(CC2)c2cc(C(F)(F)F)c(C(F)(F)F)n2CCN3C)ccc1OC(C)C [Compound 48] | ≤ 2000 nM
CN1CCn2c(C(F)(F)F)ccc2C12CCN(C(=O)c1ccnc3ccccc13)CC2 [Compound 49] | ≤ 2000 nM
CC(C)c1cc(C(=O)N2CCC3(CC2)c2ccc(C(=O)C(F)(F)F)n2CCN3C)ccc1O [Compound 50] | ≤ 2000 nM
CC(C)Oc1ccc(C(=O)N2CCC3(CC2)c2ccc(C(=O)C(F)(F)F)n2CCN3C)cc1C#N [Compound 51] | ≤ 2000 nM
CC(C)Oc1ccc(C(=O)N2CCC3(CC2)c2cc(C(=O)C(F)(F)F)cn2C(C)(C)CN3C)c(F)c1 [Compound 52] | > 5000 nM
CN1CCn2c(C(=O)C3(C)CC3)ccc2C12CCN(C(=O)c1ccc(S(=O)(=O)NC3CC3)cc1)CC2 [Compound 53] | ≤ 2000 nM
CCC(C)(C)c1ccc(C(=O)N2CCC3(CC2)c2ccc(C(=O)C(F)(F)F)n2CCN3C)cc1 [Compound 54] | 2000 to 5000 nM
Cc1cc(C(=O)N2CCC3(CC2)c2ccc(C(=O)C(F)(F)F)n2CCN3C)ccc1-c1ccccc1 [Compound 55] | ≤ 2000 nM
COc1cc(C(=O)N2CCC3(CC2)c2ccc(C(C)=O)n2CCN3C)ccc1C(C)(C)C [Compound 56] | ≤ 2000 nM
CC(C)Oc1ccc(C(=O)N2CCC3(CC2)N[C@H](C)Cn2c(C(F)(F)F)ccc23)cc1F [Compound 57] | ≤ 2000 nM
COc1ccc(C(=O)N2CCC3(CC2)c2ccc(C(=O)C(C)(C)C)n2CCN3C)cc1Cl [Compound 58] | ≤ 2000 nM
